Data published in paper PMC9831672 (Journal of the American Chemical Society, 2022).

Target: NotF (Aspergillus sp. MF297-2, UniProt E0Y3X1)
Assay type: binding
Details: ternary complex with brevianamide F; non-hydrolysable DMAPP analogue

Sequence of NotF (E0Y3X1 whole entry): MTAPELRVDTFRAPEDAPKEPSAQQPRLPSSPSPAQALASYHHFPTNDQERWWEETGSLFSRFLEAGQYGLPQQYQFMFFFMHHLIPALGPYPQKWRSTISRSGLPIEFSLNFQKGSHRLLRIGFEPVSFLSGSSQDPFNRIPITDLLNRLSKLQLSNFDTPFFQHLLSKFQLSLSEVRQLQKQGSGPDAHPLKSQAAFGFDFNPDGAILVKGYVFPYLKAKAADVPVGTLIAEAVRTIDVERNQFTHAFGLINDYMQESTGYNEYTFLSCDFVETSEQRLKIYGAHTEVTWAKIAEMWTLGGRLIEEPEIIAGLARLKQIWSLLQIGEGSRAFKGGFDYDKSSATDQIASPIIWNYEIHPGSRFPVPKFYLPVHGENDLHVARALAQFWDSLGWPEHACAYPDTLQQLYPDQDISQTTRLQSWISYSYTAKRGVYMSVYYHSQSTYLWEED

SMILES: CC(C)=CCSP(=O)(O)OP(=O)(O)O [dimethylallyl S-thiolodiphosphate]
- X-ray crystal structure (3.0 A), co-crystallisation: a non-hydrolysable DMAPP analog, dimethylallyl S-thiolodiphosphate (DMSPP), was determined
